For this assay, the system named is Vibrio cholerae MCM B-322. Nature of the assay: Antibacterial activity, simple disc diffusion (agar diffusion) technique. Background: In agar diffusion tests the substance spreads into inoculated agar from a disc or well.

Method: In addition, standard discs of penicillin (10 units/disc), amphicillin (10 mcg/disc) and streptomycin (10 mcg/disc) were used to compare the sensitivity.
Antibacterial activity was determined using a Gram negative bacterial strain, Vibrio cholerae, in a agar diffusion assay, essentially as described by Chabbert, (1963) and Rinehart et.al.,(1981). […] Following an appropriate incubation interval, microbial growth inhibition was visualized and quantified by measuring the clear zone around each disc (Plate 1.). Comparison of this was made with the standard antibiotics (penicillin, amphicillin, and streptomycin).

With `CC(C)=CCc1[nH]c2ccccc2c1C=C1NC(=O)C(C)NC1=O` (centres unmarked) [chrysogenazine, 3,1′-didehydro-3[2″(3′″,3′″-dimethyl-prop-2-enyl)-3″-indolylmethylene]-6-methylpiperazine-2,5-dione], the “antibacterial activity against human pathogen Vibrio cholerae (in words)” value (disc diffusion, 5-30 mcg/disc) is “active”. Where the note is “Vibrio cholerae, MCMB322”, `[H]/N=C(/N)N[C@H]1[C@H](O)[C@@H](O)[C@H](O[C@@H]2O[C@@H](C)[C@](O)(C=O)[C@H]2O[C@@H]2O[C@@H](CO)[C@H](O)[C@@H](O)[C@@H]2NC)[C@@H](N/C(N)=N\[H])[C@@H]1O` [streptomycin] showed a zone of inhibition at 10 µg/disc of 4 to 5 mm.

Broadly, the zone of inhibition is the size of the clear area around the sample on an inoculated plate.

Values taken from patent US20050143392A1, “Chrysogenazine obtained from fungus Penicillium chrysogenum having antibacterial activity” (Council of Scientific & Industrial Research, priority 2003, published 2005).
